Target: T1, Human 11βHSD1 (Homo sapiens, UniProt P28845)
T1 construct: the enzyme source, native hepatic enzyme compared to recombinant enzyme; tissue XenoTech H0610/Lot 0210078; host or cells: human hepatic microsomes
Assay: 11β HSD1 cortisol radioimmunoassay (RIA) with human hepatic microsomes
Type: biochemical
Conditions: read-out: % inhibition of Human 11βHSD1 @ 10 μM
Procedure: Biological Assay Development Using Human 11β-Hydroxysteroid Dehydrogenase Type 1. Standard Operating Procedure for the 11β-Hydroxysteroid Dehydrogenase Type 1 Cortisol Radioimmunoassay. 11β HSD1 Cortisol RIA
Enzyme assay buffer: 30 mM Tris-HCL, pH 7.2 containing 1 mM EDTA
Antibody binding buffer: 50 mM Tris-HCL, pH 8, containing 0.1 M NaCl and 0.1% gelatin
Dilute into assay buffer 1 in 25. Also dilute neat DMSO 1 in 25 into assay buffer for controls.
Dilute this 1 in 50 into assay buffer.
Prepare NADPH as a 1.8 mg/ml solution in assay buffer.
Mix these 3 solutions 1:1:1 to make a solution of sufficient volume for 25 μl additions to each sample. Add 0.5 μCi tritiated cortisone per 25 μl and mix the solution well.
Microsome preparation: Dilute stock 20 mg/ml solution 1 in 100 with assay buffer.
Dextran coated charcoal preparation: Make a 20 mg/ml solution in antibody binding buffer and chill on ice.
Enzyme assay: To a u-bottom polypropylene 96 well plate add:
25 μl compound dilution or diluted DMSO to controls, NSB's and blanks
10 μl 1 mM GA in DMSO (enzyme stop solution) to blanks
25 μl substrate mixture to all samples
50 μl diluted microsomes to all samples
Incubate plate for 30 min at 37° C. shaking
Add 10 μl enzyme stop solution to all wells except the blanks
Add 100 μl antibody solution to all wells except the NSB's, add antibody binding buffer to these wells
Incubate at 37° C. for 1 h
Chill plate on ice for 15 min
Add 50 μl/well charcoal solution and mix with an 8-channel pipette (4-5 aspirations)
Centrifuge at 4° C., 2000×g for 15 min
Transfer 100 μl supernatant into an Optiplate, also add 25 μl substrate mixture to 2 empty wells to indicate counting efficiency
Add 200 μl Microscint-40 to all wells and count on a Topcount
The 11β HSD1 enzyme assay was carried out following the standard operating procedure described above in u-bottom polypropylene 96 well plates or 1.5 ml Eppendorf tubes as indicated for each experiment. Subsequent to stopping the enzyme reaction, 100 μl antibody prepared in buffer 3 unless otherwise indicated was added to test samples and 100 μl buffer 3 was added to the NSB samples. The samples were incubated for 1 hour at 37° C. and the chilled on ice for 15 mins. Dextran coated charcoal (50 μl/sample) prepared to the indicated concentration in buffer 3 was added and the samples were mixed (vortex for tubes and aspiration 5 times with an 8-channel pipette for 96 well plates) and chilled for a further 10 min. The samples were centrifuged at 2000×g for 15 min at 4° C. to pellet the charcoal. Aliquots of the supernatant (100 μl) were transferred to an Optiplate and counted on the Topcount in 150-200 μl Microscint 40. In some experiments, aliquots of supernatant were transferred to scintillation vials and counted on the Tricarb LSC in 5 ml Ultima Gold scintillant.
Substrate saturation was examined. The enzyme assay was carried out exactly described in the methods section, in Buffer 3 with 10 μg/well microsomal protein and with [cold cortisone] as indicated. [3H]-cortisone was 0.5 μCi/sample throughout. The reaction was stopped after 30 min by the addition of 10 μl stop solution. The RIA was carried out exactly as indicated in the methods section.
It is reported that DMSO can both increase and reduce microsomal enzyme activity, depending on the concentration, presumably due to effects on the microsomal membranes.

T1 sequence (P28845 whole entry): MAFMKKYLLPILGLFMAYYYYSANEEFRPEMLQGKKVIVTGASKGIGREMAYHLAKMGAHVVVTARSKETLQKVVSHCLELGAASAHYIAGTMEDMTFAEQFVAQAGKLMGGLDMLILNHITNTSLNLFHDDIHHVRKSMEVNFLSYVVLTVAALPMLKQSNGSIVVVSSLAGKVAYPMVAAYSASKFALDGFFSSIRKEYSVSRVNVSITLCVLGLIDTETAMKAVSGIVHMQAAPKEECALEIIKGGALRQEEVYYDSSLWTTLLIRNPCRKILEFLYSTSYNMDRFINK

SMILES | inhibition at 10 µM [%]
Cc1nc2cc(NS(=O)(=O)c3ccc(Br)cc3)ccc2s1 [compound 519] | 48
COc1ccc(S(=O)(=O)Nc2ccc3sc(C)nc3c2)cc1 [compound 424] | 47
Cc1nc2cc(NS(=O)(=O)c3ccc(Cl)cc3Cl)ccc2s1 [compound 412] | 36
Cc1nc2cc(NS(=O)(=O)c3cccc(Cl)c3C)ccc2s1 [compound 413] | 29
Cc1nc2cc(NS(=O)(=O)c3c(C)c(C)c(C)c(C)c3C)ccc2s1 [compound 710] | 35
COc1cc(C)ccc1S(=O)(=O)Nc1ccc2sc(C)nc2c1 [compound 584] | 20
Cc1nc2cc(NS(=O)(=O)c3ccc4c(c3)CN(C(=O)C(F)(F)F)CC4)ccc2s1 [compound 581] | 29
Cc1nc2cc(NS(=O)(=O)c3ccc(C(C)(C)C)cc3)ccc2s1 [compound 709] | 49
Cc1nc2cc(NS(=O)(=O)c3cccc4cccnc34)ccc2s1 [compound 552] | 45
Cc1nc2cc(NS(=O)(=O)c3ccc(Br)cc3C)ccc2s1 [compound 523] | 61
Cc1nc2cc(NS(=O)(=O)c3c(Cl)cc(Cl)cc3Cl)ccc2s1 [compound 522] | 47
Cc1nc2cc(NS(=O)(=O)c3cccc4c(N(C)C)cccc34)ccc2s1 [compound 554] | 53
Cc1nc2cc(NS(=O)(=O)c3cccc4ccccc34)ccc2s1 [compound 553] | 48
CC(=O)c1ccccc1S(=O)(=O)Nc1ccc2sc(C)nc2c1 [compound 701] | 41
COc1c(C)c(C)c(S(=O)(=O)Nc2ccc3sc(C)nc3c2)c(C)c1C [compound 708] | 21
Cc1nc2cc(NS(=O)(=O)c3c(C(C)C)cc(C(C)C)cc3C(C)C)ccc2s1 [compound 703] | 37
Cc1nc2cc(NS(=O)(=O)c3ccc(C(C)C)cc3)ccc2s1 [compound 704] | 44
COC(=O)c1ccccc1S(=O)(=O)Nc1ccc2sc(C)nc2c1 [compound 705] | 28
Cc1nc2cc(NS(=O)(=O)c3c(C)cccc3Cl)ccc2s1 [compound 425] | 41
Cc1nc2cc(N(C)S(=O)(=O)c3cccc(Cl)c3C)ccc2s1 [compound 469] | 66
Cc1nc2cc(NS(=O)(=O)c3ccc(-c4ccccc4)cc3)ccc2s1 [compound 521] | 60
CCCc1ccc(S(=O)(=O)Nc2ccc3sc(C)nc3c2)cc1 [compound 421] | 42
CCN(c1ccc2sc(C)nc2c1)S(=O)(=O)c1cccc(Cl)c1C [compound 470] | 54
Cc1nc2cc(NS(=O)(=O)c3ccccc3C#N)ccc2s1 [compound 583] | 28
CCSc1nc2ccc(NS(=O)(=O)c3cccc(Cl)c3C)cc2s1 [compound 751] | 22
Cc1nc2cc(NS(=O)(=O)c3cc(Cl)ccc3Cl)ccc2s1 [compound 580] | 30
COc1ccc(Cl)cc1S(=O)(=O)Nc1ccc2sc(C)nc2c1 [compound 582] | 34
Cc1nc2cc(NS(=O)(=O)c3ccc(Oc4ccccc4)cc3)ccc2s1 [compound 585] | 58

From patent publication US7786152B2, “Compound” (priority 2002, dated 2010)
